Laboratory results: US8633166B2, “Methicillin-resistant Staphylococcus aureus active metabolites” (priority 2009, dated 2014)
Like-named read-outs stand apart in the source and are kept apart here.

Experiments:
Experiment in all cases: In vitro MIC, broth microdilution (CLSI)
Type in all cases: cell-based
Streptococcus pneumoniae = conditions: MHB II with 2% lysed horse blood
Method: (§1) All test articles were dissolved in DMSO. Stock solutions were prepared at 40-fold the highest concentration in the test plate. The final concentration of DMSO in the test system was 2.5%.
(§2) The medium employed for the MIC assay was Mueller Hinton II Broth (MHB II-Becton Dickinson, #212322, Lot #9044411) for most of the organisms. MHB II was supplemented with 2% lysed horse blood (Cleveland Scientific Lot #22299-1) to accommodate the growth of Streptococcus pneumoniae, Streptococcus pyogenes and Streptococcus agalactiae. The media were prepared at 102.5% the normal weight to offset the dilution created by the addition of 5 μL drug solution to each well of the microdilution panels.
(§3) The MIC assay method followed the procedure described by the Clinical and Laboratory Standards Institute (see Clinical and Laboratory Standards Institute. Methods for Dilution Antimicrobial, Susceptibility Tests for Bacteria That Grow Aerobically; Approved Standard—Eighth Edition. CLSI document M07-A8 [ISBN 1-56238-689-1]. Clinical and Laboratory, Standards Institute, 940 West Valley Road, Suite 1400, Wayne, Pa. 19087-1898 USA, 2009) and employed automated liquid handlers to conduct serial dilutions and liquid transfers. Automated liquid handlers included the Multidrop 384 (Labsystems, Helsinki, Finland), Biomek 2000 and Multimek 96 (Beckman Coulter, Fullerton Calif.).
(§4) The wells of Columns 2-12 of standard 96-well microdilution plates (Falcon 3918) were filled with 150 μL of DMSO on the Multidrop 384. The drugs (300 μL) were dispensed into Column 1 of the appropriate row in these plates. These would become the mother plates from which the test plates (daughter plates) were prepared. The Biomek 2000 completed serial transfers through Column 11 in the mother plates. The wells of Column 12 contained no drug and were the organism growth control wells in the daughter plates. The daughter plates were loaded with 185 μL of the appropriate test media (described above) using the Multidrop 384. The daughter plates were prepared on the Multimek 96 instrument which transferred 5 μL of drug solution from each well of a mother plate to each corresponding well of each daughter plate in a single step. Therefore, the test agents were maintained in solution in 100% DMSO up until the point of being added to the final test medium.
(§5) Standardized inoculum of each organism was prepared per CLSI methods (See Clinical and Laboratory Standards Institute. Performance Standards for Antimicrobial Susceptibility Testing; Nineteenth Informational Supplement. CLSI document M100-S19 [ISBN 1-56238-690-5]. Clinical and Laboratory Standards Institute, 940 West Valley Road, Suite 1400, Wayne, Pa. 19087-1898 USA, 2009.). Suspensions were prepared in MHB to equal the turbidity of a 0.5 McFarland standard. The suspensions were diluted 1:9 in broth appropriate to the organism. The inoculum for each organism was dispensed into sterile reservoirs divided by width (Beckman Coulter), and the Biomek 2000 was used to inoculate the plates. Daughter plates were placed on the Biomek 2000 work surface reversed so that inoculation took place from low to high drug concentration. The Biomek 2000 delivered 10 μL of standardized inoculum into each well. This yielded a final cell concentration in the daughter plates of approximately 5×10^5 colony-forming-units/mL. Thus, the wells of the daughter plates ultimately contained 185 μL of broth, 5 μL of drug solution, and 10 μL of bacterial inoculum. The final concentration of DMSO in the assay plate was 2.5%.
(§6) Plates were stacked 3 high, covered with a lid on the top plate, placed in plastic bags, and incubated at 35° C. for approximately 18 hours for most of the isolates. The Streptococcus plates were read after 20 hours of incubation. The microplates were viewed from the bottom using a plate viewer. […] The MIC was read and recorded as the lowest concentration of drug that inhibited visible growth of the organism.

Enterococcus faecalis = tested on: Enterococcus faecalis
Method: as §1, §2, §3, §4, §5, §6

Enterococcus faecium = tested on: Enterococcus faecium
Method: as §1, §2, §3, §4, §5, §6

Staphylococcus aureus = tested on: Staphylococcus aureus
Method: as §1, §2, §3, §4, §5, §6

Streptococcus agalactiae = conditions: MHB II with 2% lysed horse blood
Method: as §1, §2, §3, §4, §5, §6

Streptococcus pyogenes = conditions: MHB II with 2% lysed horse blood
Method: as §1, §2, §3, §4, §5, §6

[1] = tested on: Staphylococcus epidermidis
Method: as §1, §2, §3, §4, §5, §6

Measured: MIC

C[C@@H]1O[C@@H](Oc2c(-c3ccc(O)cc3)oc3cc(O)cc(O)c3c2=O)[C@H](OC(=O)/C=C/c2ccc(O)cc2)[C@H](OC(=O)/C=C/c2ccc(O)cc2)[C@H]1O [Compound 1, kaempferol 3-O-α-L-(2″,3″-di-E-p-coumaroyl)rhamnoside]
1 µg/mL: Enterococcus faecalis; MMX 4131, VRE, CHP | Enterococcus faecium; MMX 0845, VSE, UCLA
8 µg/mL: Enterococcus faecalis; MMX 101, CLSI QC, ATCC 29212 | [1]; MMX 826, MRSE, UCLA
4 µg/mL: Enterococcus faecalis; MMX 3199, VSE, UCLA | Enterococcus faecalis; MMX 3821, VRE, Mt. Sinai | Enterococcus faecalis; MMX 3896, VSE, Mt. Sinai | Enterococcus faecalis; MMX 4160, VRE, UCLA | [1]; MMX 835, MSSE, UCLA | [1]; MMX 3703, MSSE, CHP | [1]; MMX 3763, MSSE, Mt. Sinai
>8 µg/mL: Enterococcus faecalis; MMX 742, VSE, CHP | Enterococcus faecium; MMX 0799, VSE, CHP | Enterococcus faecium; MMX 1259, VSE, Mt. Sinai | Enterococcus faecium; MMX 4024, VRE, CHP | Enterococcus faecium; MMX 4048, VRE, UCLA | Staphylococcus aureus; MMX 100, CLSI QC, ATCC 29213 | Staphylococcus aureus; MMX 753, MSSA, CHP | Staphylococcus aureus; MMX 758, MRSA, CHP | Staphylococcus aureus; MMX 2055, MRSA, UCLA | Staphylococcus aureus; MMX 2063, MSSA, UCLA | Staphylococcus aureus; MMX 3856, MSSA, Mt. Sinai | Staphylococcus aureus; MMX 3894, MRSA, Mt. Sinai | [1]; MMX 762, MRSE, CHP | [1]; MMX 3752, MRSE, Mt. Sinai
0.5 µg/mL: Enterococcus faecium; MMX 1238, VRE, Mt. Sinai
>16 µg/mL: Streptococcus pneumoniae; MMX 748, PRSP, CHP | Streptococcus pneumoniae; MMX 866, PSSP, CHP | Streptococcus pneumoniae; MMX 1195, CLSI QC, ATCC 49619 | Streptococcus pneumoniae; MMX 3130, PSSP, UCLA | Streptococcus pneumoniae; MMX 3160, PRSP, UCLA | Streptococcus pneumoniae; MMX 3937, PSSP, Mt. Sinai | Streptococcus pneumoniae; MMX 3953, PRSP, Mt. Sinai | Streptococcus agalactiae; MMX 3743, Mt. Sinai | Streptococcus agalactiae; MMX 4093, UCLA | Streptococcus agalactiae; MMX 4106, CHP | Streptococcus pyogenes; MMX 718, CHP | Streptococcus pyogenes; MMX 2572, UCLA | Streptococcus pyogenes; MMX 3928, Mt. Sinai

CC(=O)NC[C@H]1CN(c2ccc(N3CCOCC3)c(F)c2)C(=O)O1 [Linezolid, reference compound]
2 µg/mL: Enterococcus faecalis; Enterococcus faecalis, ATCC29212, MMX 101, CLSI QC, ATCC 29212, read-out: MIC (converted) | Enterococcus faecalis; Enterococcus faecalis, MMX 742, VSE, CHP, read-out: MIC (converted) | Enterococcus faecalis; Enterococcus faecalis, MMX 3199, VSE, UCLA, read-out: MIC (converted) | Enterococcus faecalis; MMX 3821, VRE, Mt. Sinai, read-out: MIC (converted) | Enterococcus faecalis; MMX 4131, VRE, CHP, read-out: MIC (converted) | Enterococcus faecalis; MMX 4160, VRE, UCLA, read-out: MIC (converted) | Enterococcus faecium; Enterococcus faecium, MMX 0799, VSE, CHP, read-out: MIC | Enterococcus faecium; Enterococcus faecium, MMX 0845, VSE, UCLA, read-out: MIC | Enterococcus faecium; MMX 1238, VRE, Mt. Sinai, read-out: MIC | Staphylococcus aureus; Staphylococcus aureus, MSSA, MMX 2063, MSSA, UCLA, read-out: MIC (converted) | Streptococcus agalactiae; Streptococcus agalactiae, MMX 4106, CHP, read-out: MIC | [1]; Staphylococcus epidermidis, MMX 3763, MSSE, Mt. Sinai, read-out: MIC
1 µg/mL: Streptococcus pneumoniae; Streptococcus pneumoniae, ATCC49619, MMX 1195, CLSI QC, ATCC 49619, read-out: MIC (converted) | Streptococcus pneumoniae; Streptococcus pneumoniae, MMX 866, PSSP, CHP, read-out: MIC (converted) | Streptococcus pneumoniae; Streptococcus pneumoniae, MMX 3130, PSSP, UCLA, read-out: MIC (converted) | Streptococcus pneumoniae; Streptococcus pneumoniae, MMX 3937, PSSP, Mt. Sinai, read-out: MIC (converted) | Streptococcus pneumoniae; Streptococcus pneumoniae, PRSP, MMX 3160, PRSP, UCLA, read-out: MIC (converted) | Enterococcus faecalis; Enterococcus faecalis, MMX 3896, VSE, Mt. Sinai, read-out: MIC (converted) | Streptococcus agalactiae; Streptococcus agalactiae, MMX 3743, Mt. Sinai, read-out: MIC | Streptococcus agalactiae; Streptococcus agalactiae, MMX 4093, UCLA, read-out: MIC | Streptococcus pyogenes; MMX 2572, UCLA | Streptococcus pyogenes; MMX 3928, Mt. Sinai | Streptococcus pyogenes; Streptococcus pyogenes, MMX 718, CHP, read-out: MIC | [1]; Staphylococcus epidermidis, MMX 835, MSSE, UCLA, read-out: MIC | [1]; Staphylococcus epidermidis, MMX 3703, MSSE, CHP, read-out: MIC | [1]; Staphylococcus epidermidis, MRSE, MMX 762, MRSE, CHP, read-out: MIC | [1]; Staphylococcus epidermidis, MRSE, MMX 826, MRSE, UCLA, read-out: MIC | [1]; Staphylococcus epidermidis, MRSE, MMX 3752, MRSE, Mt. Sinai, read-out: MIC
0.5 µg/mL: Streptococcus pneumoniae; Streptococcus pneumoniae, PRSP, MMX 748, PRSP, CHP, read-out: MIC (converted) | Streptococcus pneumoniae; Streptococcus pneumoniae, PRSP, MMX 3953, PRSP, Mt. Sinai, read-out: MIC (converted)
4 µg/mL: Enterococcus faecium; Enterococcus faecium, MMX 1259, VSE, Mt. Sinai, read-out: MIC | Enterococcus faecium; MMX 4024, VRE, CHP, read-out: MIC | Enterococcus faecium; MMX 4048, VRE, UCLA, read-out: MIC | Staphylococcus aureus; Staphylococcus aureus, ATCC29213, MMX 100, CLSI QC, ATCC 29213, read-out: MIC (converted) | Staphylococcus aureus; Staphylococcus aureus, MRSA, MMX 758, MRSA, CHP, read-out: MIC (converted) | Staphylococcus aureus; Staphylococcus aureus, MRSA, MMX 2055, MRSA, UCLA, read-out: MIC (converted) | Staphylococcus aureus; Staphylococcus aureus, MRSA, MMX 3894, MRSA, Mt. Sinai, read-out: MIC (converted) | Staphylococcus aureus; Staphylococcus aureus, MSSA, MMX 753, MSSA, CHP, read-out: MIC (converted) | Staphylococcus aureus; Staphylococcus aureus, MSSA, MMX 3856, MSSA, Mt. Sinai, read-out: MIC (converted)
